The values below are quoted from earlier work in US10894875B2, “Films and unit dose articles comprising aversive UV-protective agents, and uses and methods related thereto” (The Procter & Gamble Company, priority 2017, dated 2021).

Marks after values point to notes of the source that are not given here.

The conditions of data set [1]: reference quinine; lower values correspond to stronger bittering.
The conditions of data set [2]: high assessed based on melting point; low = hydrolysis; based on literature.
The conditions of data set [3]: Scoville heat units.

In the case of `C=C[C@H]1C[N@@]2CC[C@H]1C[C@H]2[C@H](O)c1ccnc2ccc(OC)cc12` [Ex. 7, Quinine, reference compound], in data set [1], the Bittering index was 0^d. Take `CCCCCOC(=O)c1ccc(N(C)C)cc1` [Ex. 6, Padimate A, reference compound]: the Thermostability entry in data set [2] was “Low^c”.

On to `COc1cc(CNC(=O)CCCC/C=C/C(C)C)ccc1O` [capsaicin], for which the pungency level entry in data set [3] was “about 16,000,000 SHU”.
